Test results published in ChEMBL document CHEMBL5036327, “Systematic Optimization of Potent and Orally Bioavailable Purine Scaffold as a Dual Inhibitor of Toll-Like Receptors 7 and 9” (J Med Chem, 2021).
In brackets after ≈: the same amount, converted by molar mass.

Tests used:
[1] = Metabolic stability in human liver microsomes assessed as half life incubated for 60 mins by LC-MS/MS analysis
[2] = Stability in mouse plasma measured after 2 hrs by LC-MS/MS analysis
[3] = Efflux ratio of apparent permeability across apical to basolateral over basolateral to apical side in human Caco2 cells measured after 10 mins by LC-MS/MS analysis; settings: Caco-2
[4] = Metabolic stability in human liver microsomes assessed as compound remaining incubated for 60 mins by LC-MS/MS analysis
[5] = metabolic stability in human liver microsomes assessed as hepatic extraction ratio incubated for 60 mins by LC-MS/MS analysis
[6] = Metabolic stability in mouse liver microsomes assessed as hepatic extraction ratio incubated for 60 mins by LC-MS/MS analysis
[7] = Apparent permeability across apical to basolateral side in human Caco2 cells at 10 uM measured after 10 mins by LC-MS/MS analysis; settings: Caco-2
Toll-like receptor 8 = target: T1, Toll-like receptor 8 (Homo sapiens, UniProt Q9NR97); assay: Antagonist activity at human TLR8 expressed in […] cells assessed as inhibition of CL075-induced NFkappaB activation measured after overnight incubation by SEAP-based spectrophotometry assay; type: cell-based, HEK293
T1 sequence (Q9NR97 whole entry): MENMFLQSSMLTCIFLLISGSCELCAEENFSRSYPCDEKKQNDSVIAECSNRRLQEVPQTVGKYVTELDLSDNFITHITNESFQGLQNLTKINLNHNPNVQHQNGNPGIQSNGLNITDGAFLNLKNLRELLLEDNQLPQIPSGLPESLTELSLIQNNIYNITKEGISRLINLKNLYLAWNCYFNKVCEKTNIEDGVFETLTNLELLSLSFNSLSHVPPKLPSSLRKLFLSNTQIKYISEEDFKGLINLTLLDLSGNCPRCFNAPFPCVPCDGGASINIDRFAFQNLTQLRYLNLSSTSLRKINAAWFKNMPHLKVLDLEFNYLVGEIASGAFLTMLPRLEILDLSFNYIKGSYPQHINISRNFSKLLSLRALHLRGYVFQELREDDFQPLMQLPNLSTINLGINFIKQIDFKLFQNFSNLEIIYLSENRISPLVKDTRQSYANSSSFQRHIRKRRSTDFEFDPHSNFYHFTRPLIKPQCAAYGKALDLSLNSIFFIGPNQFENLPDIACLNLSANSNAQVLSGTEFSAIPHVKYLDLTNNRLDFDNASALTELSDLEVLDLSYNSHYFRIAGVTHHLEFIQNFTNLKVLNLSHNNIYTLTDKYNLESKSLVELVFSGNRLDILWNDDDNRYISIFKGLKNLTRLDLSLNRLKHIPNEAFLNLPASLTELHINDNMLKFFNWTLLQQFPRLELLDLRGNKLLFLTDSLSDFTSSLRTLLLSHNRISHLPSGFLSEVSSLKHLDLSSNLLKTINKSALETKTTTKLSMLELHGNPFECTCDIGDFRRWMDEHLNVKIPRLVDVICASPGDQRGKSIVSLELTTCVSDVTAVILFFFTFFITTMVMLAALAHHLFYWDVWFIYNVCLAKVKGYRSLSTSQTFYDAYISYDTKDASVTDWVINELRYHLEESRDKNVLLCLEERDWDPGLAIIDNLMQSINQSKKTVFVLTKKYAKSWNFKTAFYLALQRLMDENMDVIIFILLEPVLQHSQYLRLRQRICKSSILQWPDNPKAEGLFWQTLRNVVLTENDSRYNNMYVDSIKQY

physchem = settings: buffer, pH 7.4
Description: Aqueous solubility of compound at pH 7.4 measured after 18 hrs by UV-spectrometry

[8] = Stability in human plasma measured after 2 hrs by LC-MS/MS analysis
Toll-like receptor 7 = target: T2, Toll-like receptor 7 (Homo sapiens, UniProt Q9NYK1); assay: Antagonist activity at human TLR7 expressed in HEK-blue-HTLR7 cells assessed as inhibition of CL264-induced NFkappaB activation measured after overnight incubation by SEAP-based spectrophotometry assay
T2 sequence (Q9NYK1 whole entry): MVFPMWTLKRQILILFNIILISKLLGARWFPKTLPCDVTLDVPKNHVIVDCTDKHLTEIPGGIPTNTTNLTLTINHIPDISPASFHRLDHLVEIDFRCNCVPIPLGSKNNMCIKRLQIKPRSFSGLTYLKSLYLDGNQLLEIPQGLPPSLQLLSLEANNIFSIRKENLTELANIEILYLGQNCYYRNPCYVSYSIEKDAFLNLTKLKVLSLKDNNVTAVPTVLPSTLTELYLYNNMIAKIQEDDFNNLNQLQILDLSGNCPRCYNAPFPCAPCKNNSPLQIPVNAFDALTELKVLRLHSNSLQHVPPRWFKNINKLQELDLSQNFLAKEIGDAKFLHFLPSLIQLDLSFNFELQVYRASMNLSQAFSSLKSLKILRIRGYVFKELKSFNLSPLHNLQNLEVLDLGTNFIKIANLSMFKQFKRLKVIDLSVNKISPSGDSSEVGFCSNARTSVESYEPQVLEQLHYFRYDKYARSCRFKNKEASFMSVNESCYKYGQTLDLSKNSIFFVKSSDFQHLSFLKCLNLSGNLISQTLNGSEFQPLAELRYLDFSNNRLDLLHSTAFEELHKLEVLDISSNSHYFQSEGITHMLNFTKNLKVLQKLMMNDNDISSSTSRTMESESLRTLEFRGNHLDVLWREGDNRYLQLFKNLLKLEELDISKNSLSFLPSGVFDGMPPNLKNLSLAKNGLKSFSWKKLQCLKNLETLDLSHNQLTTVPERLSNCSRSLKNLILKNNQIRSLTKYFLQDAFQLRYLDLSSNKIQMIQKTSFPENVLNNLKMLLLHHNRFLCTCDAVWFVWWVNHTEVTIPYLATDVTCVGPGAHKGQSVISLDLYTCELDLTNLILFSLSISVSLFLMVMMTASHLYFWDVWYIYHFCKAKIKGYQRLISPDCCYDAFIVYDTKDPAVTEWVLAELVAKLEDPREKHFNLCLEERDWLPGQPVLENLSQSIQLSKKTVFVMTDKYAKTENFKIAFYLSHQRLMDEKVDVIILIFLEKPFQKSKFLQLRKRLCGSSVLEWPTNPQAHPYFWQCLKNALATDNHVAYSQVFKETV

[9] = Metabolic stability in mouse liver microsomes assessed as intrinsic clearance incubated for 60 mins by LC-MS/MS analysis
[10] = Metabolic stability in human liver microsomes assessed as intrinsic clearance incubated for 60 mins by LC-MS/MS analysis
[11] = Apparent permeability across basolateral to apical side in human Caco2 cells at 10 uM measured after 10 mins by LC-MS/MS analysis; settings: Caco-2

half-life at 1 h [1]: 17.9 min
remaining at 2 h [2]: 20%
efflux ratio at 10 min [3]: 1.9
remaining at 1 h [4]: 2.9%
hepatic extraction ratio at 1 h [5]: 0.642
hepatic extraction ratio at 1 h [6]: 0.385
Papp A→B at 10 min, 10 µM [7]: 32.7 ×10⁻⁶ cm/s
IC50 (Toll-like receptor 8): > 30 µM
solubility at 18 h (physchem): 28 µg/mL (≈ 55.3 µM)
remaining at 2 h [8]: 75%
IC50 (Toll-like receptor 7): 13.6 µM
microsomal CLint at 1 h [9]: 23.1 µL/min/mg
microsomal CLint at 1 h [10]: 38.8 µL/min/mg
Papp B→A at 10 min, 10 µM [11]: 62 ×10⁻⁶ cm/s
Structure (SMILES): Fc1ccc(CNc2nc(N3CCN(C4CCCC4)CC3)c3ncn(CCCN4CCCC4)c3n2)cc1
